{
  "source": "patent US8846066B2",
  "about": "“Methods and related compositions for reduction of fat and skin tightening” (The Regents of the University of California, priority 2004, dated 2014)",
  "key": {"fat deposits": {"tested_on": "fat deposits", "assay": "Injection of deoxycholate into facial fat deposits of an HIV lipodystrophy patient", "assay_type": "in vivo, human", "conditions": "1% deoxycholate, 1 month follow up, both sides", "procedure": "An HIV lipodystrophy patient with symmetrical fat deposits in their face just vental of their master muscle (sort of in their cheeks, like acorns in the mouth of a chipmunk) was injected with 1% deoxycholate. At 1 month follow up, there was a 50% apparent reduction in deposit volume on both sides."}, "HaCaT cells": {"tested_on": "HaCaT cells", "assay": "Lactate dehydrogenase (LDH) release assay, cell lysis", "assay_type": "cell-based, human", "conditions": "for LDH release (OD 490): 30 min at 37° C.", "procedure": "Cell lysis in response to detergent treatment was determined in HaCaT cells incubated with the reagents at the indicated cell dilutions for 30 min at 37° C. Lysis in cultured cells was measured using a lactate dehydrogenase (LDH) assay and within tissue using calcein, a fluorescent marker retained in cells with intact cell membranes. The LDH assay measures the activity of LDH, which is a cytosolic enzyme released when cells are lysed. Lactate dehydrogenase release was measured by absorbance (at 490 nm) after a 1 hour incubation with the LDH assay as recommended by the manufacturer (CytoTox 96 Non-Radioactive Cytotoxicity Assay, Promega). All studies were performed in triplicate. LDH release is directly proportional to absorbance at 490 nm (OD 490)."}, "adipocytes": {"tested_on": "adipocytes", "assay": "Adipocyte survival on addition of PC to 4.75% DC", "assay_type": "cell-based", "conditions": "for Average / Adipocytes surviving by adding PC to 4.75% DC: 4.75% DC; for Adipocytes surviving by adding PC to 4.75% DC: single wells", "procedure": "FIG. 9 illustrates survival of adipocytes when phosphatidylcholine is added to 4.75% sodium deoxycholate solution. On y-axis, 1 represents 100% survival. All % concentrations are w/v %. Survival of the cells in the absence of DC and PC is on an average 0.113."}, "porcine fat tissue": {"tested_on": "porcine fat tissue", "assay": "MTS assay in fresh porcine fat specimens", "assay_type": "cell-based", "conditions": "PBF or 5% solutions, 4 hours", "procedure": "To measure cell viability after detergent treatment, HaCaT human keratinocyte cells were cultured in DMEM (Dulbecco's modified Eagle's medium) supplemented with 10% fetal calf serum, penicillin, and streptomycin. […] Cell viability was determined by an absorbance spectrophotometer (at 490 nm) after 4 hour incubation with the assay at 37° C. To determine cell viability in fresh tissue, fat specimens were incubated for 4 hours in 24 well plates with stock reagents and the MTS assay. Tissue specimens were then visualized for color change and the amount of MTS in their supernatants was measured by absorbance (at 490 nm). All studies were performed in triplicate. Absorbance at 490 nm (OD 490) is proportional to the number of living cells in the culture.\nPorcine tissue was obtained immediately after sacrifice, shaved, and placed on ice for a maximum of four hours before use. […] Calcein retention was determined by tissue fluorescence using purple (411 nm) light and visually observing the emitted green (500 nm) light using an emission filters.\nFresh porcine skin was used to determine if the effects of these detergent substances on cultured cells were similar in tissue. […] The difference in fat cell viability between the solutions was quantified by measuring the absorbance (at 490) of the supernatants collected from the treated fat specimens (FIG. 3b). […]"}, "A375M": {"tested_on": "A375M", "assay": "Killing by DC after pre-incubation with human lipoma fat, A375M", "assay_type": "cell-based", "procedure": "(§1) The experiment was performed on a series of immortalized melanocyte cell lines. Resected human lipomas were ground up, and DC-containing media was mixed with the human fat and agitated for 24 hours. The material was centrifuged to pellet insoluble contents. The supernatants were then added on top of cultured melanocytes. Control was the identical DC-containing media not exposed to the fat chunks. Also, fat alone (no media) was added as a control."}, "[1]": {"tested_on": "immortalized melanocyte cell lines", "assay": "Killing by DC after pre-incubation with human lipoma fat, series of cell lines", "assay_type": "cell-based", "conditions": "0.1% DC pre-incubated with human lipoma fat", "procedure": "as §1\nBut it is evident in this experiment that the presence of the fat limits the killing properties of DC, may be by direct inhibition (like PC) or by sequestration (i.e., into the fat pellet). This can further explain the observation that injection of DC into fat spares the surrounding tissues."}, "[2]": {"tested_on": "porcine skin (epidermis, dermis, subcutaneous tissue, muscle)", "assay": "Histology of full thickness porcine skin after injection", "conditions": "0.5 mL stock reagent injected, one hour at 37° C., H&E", "procedure": "Histology was performed by injecting stock reagent solutions (0.5 mL) into full thickness porcine skin at various levels (epidermis, dermis, and subcutaneous tissue) with 1.0 mL syringes and 30-gauge, 0.5 inch needles. Needle depth was visualized along the margin of the porcine tissue with the intent of saturating the target tissue. One hour after incubation with PBS at 37° C., multiple 5.0 mm biopsy specimens were obtained from the injected sites, each condition performed in triplicate. Tissue was fixed in formaldehyde, paraffin-embedded, and stained with hematoxylin-eosin. Specimens were evaluated by a board-certified dermatopathologist who was blinded to the treatment protocol."}, "SKmel28": {"tested_on": "SKmel28", "assay": "Killing by DC after pre-incubation with human lipoma fat, SKmel28", "assay_type": "cell-based", "procedure": "as §1"}, "lipomas": {"tested_on": "lipomas", "assay": "Injection of DC solutions into lipomas of patients (Example 4)", "assay_type": "in vivo, human", "procedure": "Patients having lipomas, benign, isolated collections of adipose tissue, were injected with sodium deoxycholate (DC) solutions without phosphatidylcholine directly into the lipoma. […] A lipoma from one patient, injected with 1% DC, was excised after treatment and pathological and histological analysis performed. Within the excised lipoma, necrosis is visible grossly (FIG. 6a) with a well demarcated area of hemorrhage and necrosis on the lateral edge extending into the middle of the lipoma fat which contrasts with the normal lipoma fat which is lighter in color."}, "[3]": {"conditions": "Control = 1.000, DC 0.1% media not exposed to fat"}, "[4]": {"conditions": "Control = 1.000, DC 0.1% media pre-incubated with human lipoma fat"}, "[5]": {"conditions": "DC 0.1% media not exposed to fat"}, "[6]": {"conditions": "single wells, DC 0.1% media not exposed to fat"}, "[7]": {"conditions": "single wells, supernatant of DC 0.1% media agitated 24 hours with human lipoma fat"}, "[8]": {"conditions": "supernatant of DC 0.1% media agitated 24 hours with human lipoma fat"}},
  "note": "Values joined by “and” are separate entries in the source; they are usually repeats but may differ in a detail not shown here. Equal values may be shown once.",
  "data": [
    {"compound": "C[C@H](CCC(=O)[O-])[C@H]1CC[C@H]2[C@@H]3CC[C@@H]4C[C@H](O)CC[C@]4(C)[C@H]3C[C@H](O)[C@]12C.[Na+]", "note": "[DC, sodium deoxycholate]", "values": [
      {"measurement": "apparent reduction in deposit volume", "setting": "fat deposits", "value": 50, "unit": "%"},
      {"measurement": "LDH release (OD 490)", "setting": "HaCaT cells; 0.005% dilution", "value": "minimal LDH release"},
      {"measurement": "LDH release (OD 490)", "setting": "HaCaT cells; 0.05% and 0.5%", "value": "progressively more LDH released"},
      {"measurement": "cell lysis compared with PBF", "setting": "HaCaT cells; cell culture", "value": "less cell lysis"},
      {"measurement": "cell lysis (LDH release, FIG. 2b)", "setting": "HaCaT cells; over the tested dilutions", "value": "concentration dependent increase in cell lysis"},
      {"measurement": "Average", "setting": "adipocytes; PC 0 (w/v %)", "value": 0},
      {"measurement": "Average", "setting": "adipocytes; PC 0.01 (w/v %)", "value": 0},
      {"measurement": "Average", "setting": "adipocytes; PC 0.1 (w/v %)", "value": 0},
      {"measurement": "Average", "setting": "adipocytes; PC 1 (w/v %)", "value": 0},
      {"measurement": "Average", "setting": "adipocytes; PC 5 (w/v %)", "value": 0.009},
      {"measurement": "adipolysis of cultured adipocytes", "setting": "adipocytes; 4.75% sodium deoxycholate, in vitro", "value": 100, "unit": "%"},
      {"measurement": "Adipocytes surviving by adding PC to 4.75% DC", "setting": "adipocytes; PC 0 (w/v %)", "value": 0},
      {"measurement": "Adipocytes surviving by adding PC to 4.75% DC", "setting": "adipocytes; PC 0.01 (w/v %)", "value": 0},
      {"measurement": "Adipocytes surviving by adding PC to 4.75% DC", "setting": "adipocytes; PC 0.1 (w/v %)", "value": 0},
      {"measurement": "Adipocytes surviving by adding PC to 4.75% DC", "setting": "adipocytes; PC 1 (w/v %)", "value": 0},
      {"measurement": "fat cell viability (MTS purple dye, absorbance at 490)", "setting": "porcine fat tissue", "value": "comparable loss of purple dye"},
      {"measurement": "Percentage, DC 0.1%", "setting": "A375M; [3]", "value": 0.106},
      {"measurement": "Percentage, DC 0.1% + fat", "setting": "A375M; [4]", "value": 0.662},
      {"measurement": "Average, DC 0.1%", "setting": "A375M; [5]", "value": 0.064},
      {"measurement": "A375M (readings), DC 0.1%", "setting": "A375M; [6]", "value": "0.066 and 0.063"},
      {"measurement": "Actual, DC 0.1%", "setting": "A375M; [6]", "value": "0.066 and 0.063"},
      {"measurement": "A375M (readings), DC 0.1% + fat", "setting": "A375M; [7]", "value": "0.456 and 0.382 and 0.365"},
      {"measurement": "Actual, DC 0.1% + fat", "setting": "A375M; [7]", "value": "0.456 and 0.382 and 0.365"},
      {"measurement": "Average, DC 0.1% + fat", "setting": "A375M; [8]", "value": 0.401},
      {"measurement": "effect of pre-incubation with fat on killing", "setting": "[1]", "value": "appears to reduce killing"},
      {"measurement": "histologic changes in epidermis, dermis, adnexal structures", "setting": "[2]", "value": "no apparent affect"},
      {"measurement": "histologic changes in fat", "setting": "[2]", "value": "Marked blurring and dissolution of adipocyte cell membranes"},
      {"measurement": "Percentage, DC 0.1%", "setting": "SKmel28; [3]", "value": 0.098},
      {"measurement": "Percentage, DC 0.1% + fat", "setting": "SKmel28; [4]", "value": 0.485},
      {"measurement": "Average, DC 0.1%", "setting": "SKmel28; [5]", "value": 0.060},
      {"measurement": "Actual, DC 0.1%", "setting": "SKmel28; [6]", "value": "0.061 and 0.060"},
      {"measurement": "SKmel28 (readings), DC 0.1%", "setting": "SKmel28; [6]", "value": "0.061 and 0.060"},
      {"measurement": "Actual, DC 0.1% + fat", "setting": "SKmel28; [7]", "value": "0.290 and 0.304 and 0.302"},
      {"measurement": "SKmel28 (readings), DC 0.1% + fat", "setting": "SKmel28; [7]", "value": "0.290 and 0.304 and 0.302"},
      {"measurement": "Average, DC 0.1% + fat", "setting": "SKmel28; [8]", "value": 0.299},
      {"measurement": "Size(cm) Post-treatment", "setting": "lipomas; Lipoma 5, pre-treatment 2.00 × 1.75, 2 treatments (1% DC)", "value": 1.25, "unit": "cm"},
      {"measurement": "Size(cm) Post-treatment", "setting": "lipomas; Lipoma 6, pre-treatment 2.80, 1 treatment (5% DC)", "value": 0.50, "unit": "cm"},
      {"measurement": "Size(cm) Post-treatment", "setting": "lipomas; Lipoma 7, pre-treatment 1.00, 1 treatment (1% DC)", "value": "Imperceptible"},
      {"measurement": "size of injected lipomas", "setting": "lipomas; after at least one treatment, varied concentrations of deoxycholate", "value": "reduced in size"},
      {"measurement": "pathology and histology of excised lipoma", "setting": "lipomas; one patient, 1% DC, removed two days after injection", "value": "well defined area of hemorrhage and necrotic fat"}
    ]}
  ]
}
